Laboratory results: patent US7989649B2, “Tumor imaging compounds” (Emory University, priority 2002, dated 2011)

Tests used:
[1] = tested on: 9 L gliosarcoma tumor; assay: Biodistribution in Fischer rats with intracranial 9 L gliosarcoma tumor; assay type: in vivo; settings: for Tissue distribution of radioactivity, Blood / Tissue distribution of radioactivity, Bone / Tissue distribution of radioactivity, Heart / Tissue distribution of radioactivity, Kidney / Tissue distribution of radioactivity, Liver / Tissue distribution of radioactivity, Lung / Tissue distribution of radioactivity, Muscle / Tissue distribution of radioactivity, Pancreas / Tissue distribution of radioactivity, Spleen / Tissue distribution of radioactivity, Testis / Tissue distribution of radioactivity, Tumor / Tissue distribution of radioactivity, Brain: tumor-bearing Fischer rats; for Tissue distribution of radioactivity, Brain: normal brain contralateral to tumor
Experimental: Tumor induction and animal preparation. All animal experiments were carried out under humane conditions and were approved by the Institutional Animal Use and Care Committee (IUCAC) at Emory University. Rat 9 L gliosarcoma cells were implanted into the brains of male Fischer rats as described previously [Shoup, T M et al. (1999), J. Nucl. Med. 40:331-338]. Briefly, anesthetized rats placed in a stereotactic head holder were injected with a suspension of 4×10^4 rat 9 L gliosarcoma cells (1×10^7 per mL) in a location 3 mm right of midline and 1 mm anterior to the bregma at a depth of 5 mm deep to the outer table. The injection was performed over the course of 2 minutes, and the needle was withdrawn over the course of 1 minute to minimize the backflow of tumor cells. The burr hole and scalp incision were closed, and the animals were returned to their original colony after recovering from the procedure. Intracranial tumors developed that produced weight loss, apathy and hunched posture in the tumor-bearing rats, and the animals were used at 17-19 days after implantation. Of the 30 animals implanted with tumor cells, 25 developed tumors visible to the naked eye upon dissection and were used in the study.
The tissue distribution of radioactivity was also determined in tumor-bearing Fischer 344 rats following intravenous injection of ˜35 μCi of [^18F]5a or [^18F]5b in 0.3 mL of sterile water. The procedure was similar to that already described for normal rats with the following modifications. The tail vein injections were performed in awake animals using a RTV-190 rodent restraint device (Braintree Scientific) to avoid mortality accompanying anesthesia in the presence of an intracranial mass. The animals were killed at 5 minutes, 60 minutes or 120 minutes post-injection. The same tissues were assayed as in normal rats with the addition of the tumor tissue, and the corresponding region of brain contralateral to the tumor was excised and used for comparison. The uptake in the tumor and contralateral brain at each time point was compared via a two-tailed t-test for paired observations (GraphPad Prism software package).

[2] = Rodent biodistribution study in normal Fischer rats; assay type: in vivo, rat; settings: normal Fischer rats, 5 min after injection
Experimental: Rodent biodistribution studies. The same procedures were used to evaluate [^18F]5a and [^18F]5b separately in rodents. The tissue distribution of radioactivity was determined in 16 normal male Fischer 344 rats (200-250 g) after intravenous injection of ˜85 μCi of [^18F]5a or [^18F]5b in 0.3 mL of sterile water. The animals were allowed food and water ad libitum before the experiment. Following anesthesia induced with an intramuscular injection of 0.1 mL/100 g of a 1:1 ketamine ([…]):xylazine (20 mg/mL) solution, the radiolabeled amino acid was injected into the rats via tail vein catheters. Groups of four rats were killed at 5 minutes, 30 minutes, 60 minutes and 120 minutes after injection of the dose. The animals were dissected, and selected tissues were weighed and counted along with dose standards in a Packard Cobra II Auto-Gamma Counter. The raw counts were decay corrected, and the counts were normalized as the percent of total injected dose per gram of tissue (% ID/g). A comparison of the uptake of activity in the tissues at each time point was analyzed using a 1-way ANOVA (GraphPad Prism software package).

[3] = 60 min after injection, listed as [^18F]FAMP (5a)
[4] = 120 min after injection, listed as [^18F]FAMP (5a)

Question: With `CC(N)(CF)C(=O)O` (racemic) [[^18F]5a, 2-amino-3-fluoro-2-methylpropanoic acid] as the molecule, how does the “Tissue distribution of radioactivity, Blood” value (shortened to “Tissue distribution … Blood”) ([1]; 5 min after injection) read?
Answer: The value was 0.72 ± 0.05 percent dose per gram.

Question: What about the “Tissue distribution of radioactivity, Bone” value (“Tissue distribution … Bone” below) ([1]; 5 min after injection) of the same molecule?
Answer: Its value is 0.38 ± 0.04 percent dose per gram.

Question: What about the “Tissue distribution of radioactivity, Heart” value (“Tissue distribution … Heart” for short) ([1]; 5 min after injection) of the same molecule?
Answer: Its value is 0.40 ± 0.04 percent dose per gram.

Question: What about the “Tissue distribution of radioactivity, Kidney” value (shortened to “Tissue distribution … Kidney”) ([1]; 5 min after injection) of the same molecule?
Answer: The value was 8.66 ± 1.27 percent dose per gram.

Question: And the “Tissue distribution of radioactivity, Liver” value (“Tissue distribution … Liver” for short) ([1]; 5 min after injection)?
Answer: Its value is 0.77 ± 0.22 percent dose per gram.

Question: And the “Tissue distribution of radioactivity, Lung” value (“Tissue distribution … Lung” below) ([1]; 5 min after injection)?
Answer: Its value is 0.84 ± 0.03 percent dose per gram.

Question: And the “Tissue distribution of radioactivity, Muscle” value (from here on “Tissue distribution … Muscle”) ([1]; 5 min after injection)?
Answer: Its value is 0.39 ± 0.02 percent dose per gram.

Question: What about the “Tissue distribution of radioactivity, Pancreas” value (“Tissue distribution … Pancreas” for short) ([1]; 5 min after injection) of the same molecule?
Answer: Its value is 5.31 ± 0.68 percent dose per gram.

Question: And the “Tissue distribution of radioactivity, Spleen” value (shortened to “Tissue distribution … Spleen”) ([1]; 5 min after injection)?
Answer: Its value is 0.72 ± 0.06 percent dose per gram.

Question: What about the “Tissue distribution of radioactivity, Testis” value (from here on “Tissue distribution … Testis”) ([1]; 5 min after injection) of the same molecule?
Answer: Its value is 0.22 ± 0.02 percent dose per gram.

Question: What about the “Tissue distribution of radioactivity, Tumor” value (“Tissue distribution … Tumor” for short) ([1]; 5 min after injection) of the same molecule?
Answer: The value was 0.91 percent dose per gram.

Question: What about the “Tissue distribution … Tumor” value ([1]; 5 min after injection, listed as [^18F]FAMP (5a)) of the same molecule?
Answer: Its value is 0.91 ± 0.05 percent dose per gram.

Question: And the “Tissue distribution … Blood” value ([1]; 60 min after injection)?
Answer: Its value is 0.26 ± 0.03 percent dose per gram.

Question: What about the “Tissue distribution … Bone” value ([1]; 60 min after injection) of the same molecule?
Answer: The value was 0.25 ± 0.05 percent dose per gram.

Question: And the “Tissue distribution … Heart” value ([1]; 60 min after injection)?
Answer: The value was 0.33 ± 0.06 percent dose per gram.

Question: And the “Tissue distribution … Kidney” value ([1]; 60 min after injection)?
Answer: The value was 6.20 ± 1.45 percent dose per gram.

Question: And the “Tissue distribution … Liver” value ([1]; 60 min after injection)?
Answer: The value was 0.66 ± 0.16 percent dose per gram.

Question: And the “Tissue distribution … Lung” value ([1]; 60 min after injection)?
Answer: The value was 0.38 ± 0.04 percent dose per gram.

Question: And the “Tissue distribution … Muscle” value ([1]; 60 min after injection)?
Answer: The value was 0.31 ± 0.03 percent dose per gram.

Question: What about the “Tissue distribution … Pancreas” value ([1]; 60 min after injection) of the same molecule?
Answer: The value was 2.86 ± 0.34 percent dose per gram.

Question: And the “Tissue distribution … Spleen” value ([1]; 60 min after injection)?
Answer: Its value is 0.55 ± 0.08 percent dose per gram.

Question: And the “Tissue distribution … Testis” value ([1]; 60 min after injection)?
Answer: Its value is 0.14 ± 0.02 percent dose per gram.

Question: And the “Tissue distribution … Tumor” value ([1]; 60 min after injection)?
Answer: The value was 1.96 percent dose per gram.

Question: What about the “Tissue distribution … Tumor” value [1, 3] of the same molecule?
Answer: The value was 1.96 ± 0.10 percent dose per gram.

Question: What about the “Tissue distribution … Blood” value ([1]; 120 min after injection) of the same molecule?
Answer: The value was 0.16 ± 0.01 percent dose per gram.

Question: What about the “Tissue distribution … Bone” value ([1]; 120 min after injection) of the same molecule?
Answer: The value was 0.16 ± 0.01 percent dose per gram.

Question: What about the “Tissue distribution … Heart” value ([1]; 120 min after injection) of the same molecule?
Answer: The value was 0.22 ± 0.02 percent dose per gram.

Question: And the “Tissue distribution … Kidney” value ([1]; 120 min after injection)?
Answer: The value was 3.64 ± 0.26 percent dose per gram.

Question: And the “Tissue distribution … Liver” value ([1]; 120 min after injection)?
Answer: Its value is 0.25 ± 0.02 percent dose per gram.

Question: What about the “Tissue distribution … Lung” value ([1]; 120 min after injection) of the same molecule?
Answer: Its value is 0.24 ± 0.03 percent dose per gram.

Question: What about the “Tissue distribution … Muscle” value ([1]; 120 min after injection) of the same molecule?
Answer: Its value is 0.21 ± 0.01 percent dose per gram.

Question: What about the “Tissue distribution … Pancreas” value ([1]; 120 min after injection) of the same molecule?
Answer: Its value is 1.42 ± 0.17 percent dose per gram.

Question: What about the “Tissue distribution … Spleen” value ([1]; 120 min after injection) of the same molecule?
Answer: The value was 0.32 ± 0.02 percent dose per gram.

Question: And the “Tissue distribution … Testis” value ([1]; 120 min after injection)?
Answer: Its value is 0.11 ± 0.003 percent dose per gram.

Question: What about the “Tissue distribution … Tumor” value ([1]; 120 min after injection) of the same molecule?
Answer: The value was 1.87 percent dose per gram.

Question: What about the “Tissue distribution … Tumor” value [1, 4] of the same molecule?
Answer: Its value is 1.87 ± 0.2 percent dose per gram.

Question: And the “Tissue distribution of radioactivity, Brain” value (“Tissue distribution … Brain” for short) ([1]; 5 min after injection)?
Answer: The value was 0.035 ± 0.002 percent dose per gram.

Question: What about the “Tissue distribution … Brain” value ([1]; 60 min after injection) of the same molecule?
Answer: Its value is 0.054 percent dose per gram.

Question: What about the “Tissue distribution … Brain” value [1, 3] of the same molecule?
Answer: The value was 0.054 ± 0.01 percent dose per gram.

Question: And the “Tissue distribution … Brain” value ([1]; 120 min after injection)?
Answer: The value was 0.050 percent dose per gram.

Question: What about the “Tissue distribution … Brain” value [1, 4] of the same molecule?
Answer: The value was 0.050 ± 0.004 percent dose per gram.

Question: And the “uptake in normal brain tissue contralateral to the tumor” value ([1]; tumor-bearing rats, each time point (5, 60, 120 minutes))?
Answer: The value was “approximately 0.05 % ID/g”.

Question: What about the “Tissue distribution … Blood” value [2] of the same molecule?
Answer: Its value is 0.53 ± 0.03 percent dose per gram.

Question: And the “Tissue distribution … Bone” value [2]?
Answer: Its value is 0.27 ± 0.005 percent dose per gram.

Question: And the “Tissue distribution … Brain” value [2]?
Answer: The value was 0.04 ± 0.003 percent dose per gram.

Question: What about the “Tissue distribution … Heart” value [2] of the same molecule?
Answer: The value was 0.29 ± 0.012 percent dose per gram.

Question: What about the “Tissue distribution … Kidney” value [2] of the same molecule?
Answer: Its value is 6.36 percent dose per gram.
